We go through two molecules from patent US11613552B2, “Pharmaceutical agents, compositions, and methods relating thereto” (Alltech, Inc., priority 2017, dated 2023).

The test system of assay [1] is Pdk1/Akt/Foxo1. The assay is described as follows: Western blot of Pdk1/Akt/Foxo1 in AML-12 cells under simulated diabetic conditions (8-CPT/Dex). As to conditions: for pFoxo1 levels / total Foxo1 protein levels: 300 ppb Compound #43 or 10 nM insulin, 6 hr. In kind it is cell-based, mouse. The protocol: AML-12 cells were used to investigate whether Compound #43 can regulate Pdk1/Akt/Foxo1 signaling molecules in the liver cells following induction with diabetic stimuli. Amplified AML-12 cells were seeded on 6-well (1×10^6 cells/well) plates and cultured in 10% FBS but ITS/Dex-free DMEM/F12 media for 24 hr. Then these cells were washed twice with PBS to remove residual sera, and serum-starved in plain DMEM/F12 media overnight. These serum-starved AML12 cells were treated with the diabetic stimuli 8-CPT (0.1 mM) and Dex (0.5 μM) in combination, without (Control group) or with 10 nM insulin or Compound #43 (300 ppb) in serum-free plain DMEM/F12 media for 60 minutes, 90 minutes, and 6 hr, respectively.
After the above described treatments, cultured HepG2 and AML-12 cells were rinsed twice with ice-cold PBS and lysed in ice-cold RIPA buffer containing complete proteinase and phosphatase inhibitors (Thermo-Fisher Scientific, Waltham, Mass.) on ice for 30 min. Cell lysates were collected using a cell scraper and transfer pipette, and then centrifuged at 12000×g for 30 min at 4° C. to remove the DNA pellet and obtain the protein extract. Protein levels in the supernatant of these cell lysates were determined using the Pierce Micro-BCA protein assay kit (Thermo Scientific-Piece Biotechnology, Rockford, Ill.) according to the manufacturer's protocol.
One hundred micrograms of liver tissue proteins or five micrograms of total proteins from control- and compound(s)-treated HepG2 or AML-12 cells were subjected to SDS-PAGE gel separation and then transferred to PVDF membranes, as described previously (Reddy et al. 2008 Science). Membranes were blocked in a phosphate-buffered saline (PBS) containing 5% (w/v) of bovine serum albumin (Sigma, St. Louis, Mo.) and incubated with specific primary antibodies followed by the incubation with HRP-conjugated anti-mouse or anti-rabbit secondary antibodies (1:5000 dilution, Cell Signaling Inc.). All primary antibodies except Gapdh (Li-COR, Lincoln, Nebr.) were purchased from Cell Signaling Inc. Positive signals on the membrane blots were detected using the Amersham's enhanced chemiluminescence Western Blotting Prime Detection reagents (GE Healthcare Lifescience, Pittsburgh, Pa.). Images of these luminescence signals on the membrane blots were captured using the LI-COR Odyssey Fc Image system (Lincoln, Nebr.). The same membrane blot was stripped and re-blotted with another antibody as described in the GE WB ECL-prime-detection protocol (GE healthcare Lifescience, Pittsburgh, Pa.). Protein band densities in the Western blots were determined using the NIH ImageJ software and then normalized by Gapdh or Actb/ACTB level in each sample. Data are presented as mean±SEM of three samples per each group.

Assay [2] concerns HepG2 cells. The experiment in a line: Glucose production assay in HepG2 cells. Format: cell-based, human. The following applies: for reduction in glucose production compared with 100 nM insulin / CDE / reduction in glucose production: 48 hr; for reduction in glucose production: serum-free. The method, then:
Equal numbers of Human HepG2 or rat H4IIE cells (1-1.5×10^5 cells/well) were seeded on 96 well plates in 10% FBS-containing media for 24 hr. Cells were then washed twice with PBS, and treated with various concentrations of compounds, metformin or insulin in 100 μl of glucose production media (glucose-free, phenol red-free DMEM media supplemented with 20 mM sodium lactate, 2 mM sodium pyruvate and 5 mM HEPES) at 37° C. for 24 hr (H4IIE cells only) or 48 hr (HepG2 cell only). Cells were also incubated with 0.24% DMSO (the maximal volume of DMSO solvent used in the experiments).
After the above treatments, 50 μl of culture media were collected, and subjected to glucose analysis using Molecular Probes Amplex Red glucose assay kit (Cat #A22189) according to the manufacturer's protocol. Cell numbers or viability in the culture plate after the above compound treatments were determined using Promega's CellTiter96® AQueous One Solution Cell Proliferation Assay kits, according to the manufacturer's protocol and instructions. In brief, after removing 50 μl of culture media for glucose assay, cells were incubated with AQueous One solution (25 μl stock solution and 50 μl prewarmed PBS/per well) at 37° C. for 1 hour, and the absorbance of OD490 nm in each sample was determined by the Bio-Tek microplate reader. Cell viability in culture wells were determined by the subtraction of OD490 nm in cultured cells with the OD490 nm in plain culture media (without seeding of cells). Glucose production in the culture cells were obtained by normalizing the glucose concentration in culture media by cell viability in each well. At least 3 samples per each treatment were examined for the above analysis. Data are presented as Mean±SEM of those samples. Experiments were repeated at least twice.
The half maximal inhibitory concentration (IC50 values) of Compound #43 or metformin for the inhibition of glucose production were determined using the ED50 Plus v1.0 online software.

Entries after “also recorded” stand apart in the source; their conditions may differ.

In the case of `C[Se]C[C@H]1O[C@@H](n2cnc3c(N)ncnc32)C(OC(C)=O)C1OC(C)=O` (stereo partly shown) [Compound #43, Adenosine, 5′-Se-methyl-5′-selino-, 2′,3′-diacetate], in assay [1], the pFoxo1 levels entry was “significant increase in pFoxo1 levels”. The “total Foxo1 protein levels” value in assay [1] is listed as “slight but significant decrease”. The “phosphorylation of Pdk1, Akt and Foxo1” value in assay [1] (300 ppb, 60 minutes) is “significantly induced the phosphorylation of Pdk1, Akt and Foxo1”. The pFoxo1 protein levels entry in assay [1] (300 ppb, 90 minutes) was “significant increase in pFoxo1 protein levels”. In assay [1] (300 ppb, 90 minutes), the “pPdk1, pAkt, Akt and Foxo1 protein levels” value is “not significantly altered”. Further, the “reduction in glucose production compared with 100 nM insulin / CDE” value in assay [2] (3.8 μM) was “as potent as the CDE combination product”; in assay [2] (3.8 μM, listed as compound #43), “comparable to that achieved when insulin (100 nM) was used”; in assay [2] (7.6 μM or higher (7.6, 15.2 and 30.4 μM)), “much more potent than 100 nM insulin; also recorded: more potent than CDE”. The “relative potency among tested compounds in inhibiting glucose production” value in assay [2] (FIG. 1 left-hand panel) is reported as “the most potent”. Also, the IC50 in assay [2] (Homo sapiens, HepG2, 48 hr, read-out: IC50 (inhibition of glucose production)) came out at 15.5 µM. In addition, the “effect on glucose production in HepG2 cells” value in assay [2] (tested doses, serum-free glucose production media, 48 hr (FIG. 1)) was “decrease in glucose levels in the culture media; also recorded: inhibited glucose production”.

Turning to “insulin: insulin purchased from Sigma, positive control”, in assay [1] (10 nM insulin, 60 and 90 minutes), the “phosphorylation of Pdk1, Akt and Foxo1” value was “enhanced the phosphorylation of Pdk1, Akt and Foxo1”. Besides, in assay [1], the pFoxo1 levels entry is “increased pFoxo1” and the “total Foxo1 protein levels” value is listed as “slightly decreased total Foxo1 protein levels”. Besides, the “reduction in glucose production” value in assay [2] (10 nM insulin) came to 20%. Moreover, the “reduction in glucose production” value in assay [2] (100 nM insulin) was 30%.
